# Experimental data published in patent US20100234439A1, “THERAPEUTIC AGENTS” (priority 2006, published 2010).
# Molecular target: T1, CB1 receptor (Homo sapiens, UniProt P21554)
# T1 construct: expressed in transfected cells; membranes prepared from them
# Assay: [35S]-GTPγS binding assay, membranes from cells stably transfected with the CB1 gene, inhibition of CP55940 (EC80) stimulated activity
# Format: biochemical
# Conditions: concentration giving half maximal inhibition of GTPγS binding; EC80 concentration of agonist CP55940; 30° C., 45 min
# Experimental: The compound of the present invention is active against the receptor product of the CB1 gene. The affinity of the compound of the invention for central cannabinoid receptors is demonstrable in methods described in Devane et al, Molecular Pharmacology, 1988, 34,605 or those described in WO01/70700 or EP 656354. Alternatively the assay may be performed as follows.
# 10 μg of membranes prepared from cells stably transfected with the CB1 gene were suspended in 200 μl of 100 mM NaCl, 5 mM MgCl2, 1 mM EDTA, 50 mM HEPES (pH 7.4), 1 mM DTT, 0.1% BSA and 100 μM GDP. To this was added an EC80 concentration of agonist (CP55940), the required concentration of test compound and 0.1 μCi [^35S]-GTPγS.
# The reaction was allowed to proceed at 30° C. for 45 min. […] Filters were then covered with scintilant and counted for the amount of [^35S]-GTPγS retained by the filter.
# Activity is measured in the absence of all ligands (minimum activity) or in the presence of an EC80 concentration of CP55940 (maximum activity). […] At various concentrations of novel ligand, activity is calculated as a percentage of the maximum activity and plotted. The data are fitted using the equation y=A+((B−A)/1+((C/x)ÙD)) and the IC50 value determined as the concentration required to give half maximal inhibition of GTPγS binding under the conditions used.
# T1 sequence (P21554 whole entry): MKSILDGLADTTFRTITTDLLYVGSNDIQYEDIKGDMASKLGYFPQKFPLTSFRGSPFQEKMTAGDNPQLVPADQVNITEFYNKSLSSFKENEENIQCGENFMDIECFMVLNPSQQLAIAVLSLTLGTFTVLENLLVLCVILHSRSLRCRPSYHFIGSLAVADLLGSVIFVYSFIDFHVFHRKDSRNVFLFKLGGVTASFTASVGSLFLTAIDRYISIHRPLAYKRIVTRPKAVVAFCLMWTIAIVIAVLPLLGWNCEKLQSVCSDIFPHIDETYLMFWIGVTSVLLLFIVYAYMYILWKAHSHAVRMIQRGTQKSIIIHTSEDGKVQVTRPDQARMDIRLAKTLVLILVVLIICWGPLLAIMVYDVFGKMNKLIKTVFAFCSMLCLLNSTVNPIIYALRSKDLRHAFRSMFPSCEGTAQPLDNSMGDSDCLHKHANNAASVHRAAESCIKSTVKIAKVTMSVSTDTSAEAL
compound,measurement,value
"O=C(N[C@@H]1CCCC[C@@H]1O)c1nn(-c2ccc(Cl)cc2Cl)c(-c2ccc(OS(=O)(=O)CCC(F)(F)F)cc2)c1CO (single isomer, unassigned) [Example 1, (+)3,3,3-Trifluoro-propane-1-sulfonic acid 4-[2-(2,4-dichloro-phenyl)-5-(2-hydroxy-cyclohexylcarbamoyl)-4-hydroxymethyl-2H-pyrazol-3-yl]-phenyl ester]",IC50,1 nM
